# Test: Bioavailability of salmon calcitonin after nasal application (plasma concentration by radio-immuno-assay)
# Parameters: species or system rhesus monkeys
# Conditions: rhesus monkey, in vivo
# Experimental: The drug compound concentration was measured in the plasma by radio-immuno-assay. The salmon calcitonin determinations were carried out up to 6 hours after application.
substance,measurement,value
salmon calcitonin,bioavailability as % of the value measured with the best known resorption promoter,67%
same,bioavailability as % of the values found after application without resorption promoter,> 400%
